Results as given in patent US7893289B2, “Adamantanamines and neramexane salts of thiomolybdic and thiotungstic acids” (SSV Therapeutics, Inc., priority 2007, dated 2011).

What was measured:
[1] = ambient conditions in air and humidity, after 50 days; cited from earlier work
[2] = test system: NMDA receptor; assay: Blockage of NMDA-induced seizure activity and lethality in mice pretreated with the antagonist; format: in vivo; settings: for protection in the NMDA-induced seizure/mortality test: sc, Example 4 at equivalent memantine dose, Examples 1 and 2 administered as suspensions; for mice survived following NMDA induced seizures: male CD-1 mice, groups of 5, sc 20 min before NMDA 200 mg/kg IP, 4 h observation, highest equivalent memantine dose (memantine hydrochloride 30 mg/kg sc)
Text: Briefly, the test measures blockage of seizure activity and lethality in mice produced by the administration of NMDA when pretreated with the antagonists. [see Leander, J. D., et al., Brain Res. 448, 115-120 (1988) and Parsons, C. G., et al., Neuropharmacol 34, 1239-1258; (1995)].
Test protocol: Groups of 5 male CD-1 mice weighing 24±2 g were used. Male CD-1 (Crl.) mice were provided by BioLasco Taiwan (under Charles River Laboratories Technology License). Space allocations for animals were as follows: 29×18×13 cm for 5 mice. Mice were maintained in a controlled temperature (22° C.-24° C.) and humidity (60%-80%) environment with 12 h light/dark cycles for at least one week in MDS Pharma Services—Taiwan Laboratory prior to use. Free access to standard lab chow for mice [MF-18 (Oriental Yeast Co., Ltd., Japan)] and RO water was granted. [All aspects of this work including housing, experimentation and disposal of animals were performed in general accordance with the Guide for the Care and Use of Laboratory Animals (National Academy Press, Washington, D.C., 1996).]
Test substance was administered by subcutaneous (sc) injection 20 min before challenge with NMDA 200 mg/kg by intraperitoneal injection (IP). The animals were placed individually in glass jars and observed over a period of 4 h for presence of clonic convulsions, tonic convulsions and mortality. The onset of clonic and tonic convulsions as well as death was recorded and incidence of clonic seizures, tonic seizures and death was reported. Inhibition of NMDA (200 mg/kg, IP)-induced tonic convulsions/mortality (mainly mortality) in more than 50 percent (>50%) of the 5 mice during the following 4 h indicates possible NMDA receptor antagonist activity. Memantine hydrochloride at 30 mg/kg sc was used as positive control.
The vehicle used for dissolution was 20% aqueous DMSO.

[3] = Solubility in the dosing vehicle (20% aqueous DMSO); format: physicochemical

## [NH4+].[NH4+].[SH-].[SH-].[S]=[Mo]=[S] [TM, diammonium tetrathiomolybdate]
[1]
  loss in activity: ~55%

## CC1(C)CC(C)(C)CC(C)([NH3+])C1.CC1(C)CC(C)(C)CC(C)([NH3+])C1.[S]=[Mo](=[S])([S-])[S-] [Example 4, Bis(1-ammonium-1,3,3,5,5-pentamethylcyclohexane)tetrathiomolybdate]
[2]; mice
  protection in the NMDA-induced seizure/mortality test: complete protection

## Bis(1-methylammoniumadamantane) tetrathiomolybdate [Example 2]
[3]
  solubility in the vehicle: inadequate solubility
[2]; mice
  protection in the NMDA-induced seizure/mortality test: not protective

## CC12CC3CC(C)(C1)CC([NH3+])(C3)C2.CC12CC3CC(C)(C1)CC([NH3+])(C3)C2.[S]=[Mo](=[S])([S-])[S-] [Example 3, Bis(1-ammonium-3,5-dimethyladamantane) tetrathiomolybdate]
[2]; NMDA-induced clonic seizures and mortality in mice, equivalent dose (30 mg)
  more effective than memantine at an equivalent dose: 40%
[2]
  mice survived following NMDA induced seizures: 4/5
[2]; mice, sc pretreatment at three doses, NMDA 200 mg/kg IP
  inhibition of NMDA-induced clonic seizures and mortality: in a dose dependent manner
[2]; mice, highest equivalent memantine dose, compared with memantine
  time to seizures: notably prolonged
[2]; mice, low, medium and high doses, without DMSO solvate, similar to the high dose of memantine
  protection from tonic seizures: protected from tonic seizures

## CC12CC3CC(C)(C1)CC(N)(C3)C2 [memantine, 1-amino-3,5-dimethyladamantane, reference compound]
[2]
  mice survived following NMDA induced seizures: 5/5
